Results reported in ChEMBL document CHEMBL5506057, “Discovery and Optimization of Potent, Efficacious and Selective Inhibitors Targeting EGFR Exon20 Insertion Mutations” (J Med Chem, 2024).
Calls of active or inactive are those of the source. The calls are words filed in the database; no cut-off is given here.

What was measured:
[1] = target: Misshapen-like kinase 1 (Homo sapiens) (UniProt Q8N4C8); assay: Inhibition of MINK1 (unknown origin) at 0.1 uM relative to control
[2] = Metabolic stability in human liver microsomes assessed as intrinsic clearance at 1 uM incubated for 30 mins in presence of NADPH by LC-MS/MS analysis; format: ADME, Microsome; conditions: read-out: CLH
[3] = target: T1, Tyrosine-protein kinase BTK (Homo sapiens, UniProt Q06187); assay: Inhibition of BTK (unknown origin) at 0.1 uM relative to control
Mus musculus = assay: In vivo inhibition of EGFR phosphorylation in female SCID mouse xenografted with NCI-H2073 cells harboring EGFR D770_N771insSVD mutant at 100 mg/kg, po measured after 1 to 6 hrs by immunoblotting analysis; format: functional, organism-based; conditions: time 1-6 hrs
[4] = target: T2, Receptor tyrosine-protein kinase erbB-4 (Homo sapiens, UniProt Q15303); assay: Inhibition of ERBB4 (unknown origin) at 0.1 uM relative to control
[5] = target: Tyrosine-protein kinase Blk (Homo sapiens) (UniProt P51451); assay: Inhibition of BLK (unknown origin) at 0.1 uM relative to control
[6] = Inhibition of EGFR Ex20ins NPG mutant (unknown origin) transfected in human NCI-H2073 cells; format: cell-based
[7] = Metabolic stability in rat hepatocytes assessed as intrinsic clearance measured per 10^6 cells at 1 uM incubated for 120 mins by LC-MS/MS analysis; format: ADME, cell-based, Hepatocyte; conditions: read-out: CLH
[8] = Antitumor activity against human NCI-H2073 cells harboring wildtype EGFR xenografted in female SCID mouse assessed as tumor growth inhibition at 100 mg/kg, po administered once daily for 15 days relative to control; format: functional; conditions: NCI-H2073, 360 h, time 15 day, read-out: TGI
[9] = Antitumor activity against human NCI-H2073 cells harboring EGFR D770_N771insSVD mutant xenografted in female SCID mouse assessed as tumor growth inhibition at 100 mg/kg, po administered once daily for 14 days relative to control; format: functional; conditions: NCI-H2073, 336 h, time 14 day, read-out: TGI
[10] = Duration (time) of SCID mouse free plasma concentration cover over EGFR insSVD cell IC50 at 50 mg/kg, po; format: ADME, organism-based; conditions: in vivo
[11] = Lipophilicity, logD of compound in octanol and aqueous buffer at pH 7.4 incubated for 2 hrs by shake-flask method based LC-MS/MS analysis; format: physicochemical
[12] = Metabolic stability in CD-1 mouse hepatocytes assessed as intrinsic clearance measured per 10^6 cells at 1 uM incubated for 120 mins by LC-MS/MS analysis; format: ADME, cell-based, Hepatocyte; conditions: read-out: CLH
[13] = Inhibition of EGFR Ex20ins ASV mutant (unknown origin) transfected in human NCI-H2073 cells; format: cell-based
[14] = target: TRAF2 and NCK-interacting protein kinase (Homo sapiens) (UniProt Q9UKE5); assay: Inhibition of TNIK (unknown origin) at 0.1 uM relative to control
[15] = target: T1, Tyrosine-protein kinase BTK; assay: Inhibition of BTK (unknown origin)
[16] = Toxicity in female SCID mouse xenografted with human NCI-H2073 cells harboring EGFR D770_N771insSVD mutant assessed as body weight loss at 100 mg/kg, po administered once daily for 14 days; format: organism-based; conditions: in vivo, 336 h, time 14 day
[17] = target: T2, Receptor tyrosine-protein kinase erbB-4; assay: Inhibition of ERBB4 (unknown origin)
MDR1, BCRP = assay: Efflux ratio of apparent permeability across basolateral to apical side over apical to basolateral side in MDCKII-MDR1-BCRP cells at 1 uM incubated for 90 mins; format: ADME, cell-based, Canis lupus familiaris; conditions: dog

T2 sequence (Q15303 whole entry): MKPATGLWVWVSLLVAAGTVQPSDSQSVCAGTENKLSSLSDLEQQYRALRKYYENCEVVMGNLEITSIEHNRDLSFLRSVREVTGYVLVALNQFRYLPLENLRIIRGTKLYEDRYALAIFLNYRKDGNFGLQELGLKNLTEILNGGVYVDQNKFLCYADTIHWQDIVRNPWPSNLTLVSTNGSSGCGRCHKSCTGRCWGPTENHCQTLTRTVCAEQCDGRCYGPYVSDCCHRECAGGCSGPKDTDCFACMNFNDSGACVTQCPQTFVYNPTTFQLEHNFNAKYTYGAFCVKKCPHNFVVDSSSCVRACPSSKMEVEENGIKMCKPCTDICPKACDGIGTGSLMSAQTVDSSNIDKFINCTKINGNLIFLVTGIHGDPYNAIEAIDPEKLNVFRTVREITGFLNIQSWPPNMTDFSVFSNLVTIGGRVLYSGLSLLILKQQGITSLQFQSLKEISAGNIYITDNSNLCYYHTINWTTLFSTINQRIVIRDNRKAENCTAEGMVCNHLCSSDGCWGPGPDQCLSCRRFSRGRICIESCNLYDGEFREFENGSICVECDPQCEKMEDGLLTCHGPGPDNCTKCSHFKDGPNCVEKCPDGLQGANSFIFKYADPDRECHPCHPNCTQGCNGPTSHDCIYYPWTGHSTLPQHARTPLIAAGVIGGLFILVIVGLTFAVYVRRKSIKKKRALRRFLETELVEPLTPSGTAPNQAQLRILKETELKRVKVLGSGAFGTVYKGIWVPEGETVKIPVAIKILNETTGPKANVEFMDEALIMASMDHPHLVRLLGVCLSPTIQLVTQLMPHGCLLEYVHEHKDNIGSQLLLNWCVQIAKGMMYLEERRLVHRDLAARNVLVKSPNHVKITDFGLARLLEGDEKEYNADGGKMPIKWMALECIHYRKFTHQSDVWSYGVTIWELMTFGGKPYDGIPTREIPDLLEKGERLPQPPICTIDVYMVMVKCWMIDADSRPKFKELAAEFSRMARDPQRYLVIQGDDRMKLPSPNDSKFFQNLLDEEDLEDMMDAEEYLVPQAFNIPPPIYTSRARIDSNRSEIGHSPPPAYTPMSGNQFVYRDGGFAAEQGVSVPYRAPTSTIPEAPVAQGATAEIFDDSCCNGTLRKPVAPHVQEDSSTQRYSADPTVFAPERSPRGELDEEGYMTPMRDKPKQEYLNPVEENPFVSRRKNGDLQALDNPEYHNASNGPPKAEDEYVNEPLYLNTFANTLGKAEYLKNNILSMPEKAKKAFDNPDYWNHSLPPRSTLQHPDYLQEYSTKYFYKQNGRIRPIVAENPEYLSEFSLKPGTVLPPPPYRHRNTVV
T1 sequence (Q06187 whole entry): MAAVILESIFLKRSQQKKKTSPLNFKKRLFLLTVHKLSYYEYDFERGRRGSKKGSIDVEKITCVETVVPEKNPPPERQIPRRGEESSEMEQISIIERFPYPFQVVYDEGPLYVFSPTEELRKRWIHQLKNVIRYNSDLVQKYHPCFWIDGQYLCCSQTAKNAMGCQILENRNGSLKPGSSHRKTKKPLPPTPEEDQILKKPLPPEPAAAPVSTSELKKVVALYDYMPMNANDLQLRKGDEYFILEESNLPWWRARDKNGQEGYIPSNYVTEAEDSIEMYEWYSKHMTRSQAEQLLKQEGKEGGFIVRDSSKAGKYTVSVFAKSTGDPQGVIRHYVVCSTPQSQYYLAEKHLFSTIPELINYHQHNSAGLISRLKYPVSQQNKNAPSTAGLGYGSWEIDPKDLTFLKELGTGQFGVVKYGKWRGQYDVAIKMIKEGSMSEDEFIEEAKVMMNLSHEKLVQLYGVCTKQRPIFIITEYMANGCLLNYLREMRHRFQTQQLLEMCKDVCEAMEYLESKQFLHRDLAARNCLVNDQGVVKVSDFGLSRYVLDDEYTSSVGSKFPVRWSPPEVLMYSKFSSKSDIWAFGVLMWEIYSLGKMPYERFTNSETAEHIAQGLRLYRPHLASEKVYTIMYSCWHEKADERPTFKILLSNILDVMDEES
Sequence of Misshapen-like kinase 1 (Homo sapiens) (Q8N4C8 whole entry, looked up): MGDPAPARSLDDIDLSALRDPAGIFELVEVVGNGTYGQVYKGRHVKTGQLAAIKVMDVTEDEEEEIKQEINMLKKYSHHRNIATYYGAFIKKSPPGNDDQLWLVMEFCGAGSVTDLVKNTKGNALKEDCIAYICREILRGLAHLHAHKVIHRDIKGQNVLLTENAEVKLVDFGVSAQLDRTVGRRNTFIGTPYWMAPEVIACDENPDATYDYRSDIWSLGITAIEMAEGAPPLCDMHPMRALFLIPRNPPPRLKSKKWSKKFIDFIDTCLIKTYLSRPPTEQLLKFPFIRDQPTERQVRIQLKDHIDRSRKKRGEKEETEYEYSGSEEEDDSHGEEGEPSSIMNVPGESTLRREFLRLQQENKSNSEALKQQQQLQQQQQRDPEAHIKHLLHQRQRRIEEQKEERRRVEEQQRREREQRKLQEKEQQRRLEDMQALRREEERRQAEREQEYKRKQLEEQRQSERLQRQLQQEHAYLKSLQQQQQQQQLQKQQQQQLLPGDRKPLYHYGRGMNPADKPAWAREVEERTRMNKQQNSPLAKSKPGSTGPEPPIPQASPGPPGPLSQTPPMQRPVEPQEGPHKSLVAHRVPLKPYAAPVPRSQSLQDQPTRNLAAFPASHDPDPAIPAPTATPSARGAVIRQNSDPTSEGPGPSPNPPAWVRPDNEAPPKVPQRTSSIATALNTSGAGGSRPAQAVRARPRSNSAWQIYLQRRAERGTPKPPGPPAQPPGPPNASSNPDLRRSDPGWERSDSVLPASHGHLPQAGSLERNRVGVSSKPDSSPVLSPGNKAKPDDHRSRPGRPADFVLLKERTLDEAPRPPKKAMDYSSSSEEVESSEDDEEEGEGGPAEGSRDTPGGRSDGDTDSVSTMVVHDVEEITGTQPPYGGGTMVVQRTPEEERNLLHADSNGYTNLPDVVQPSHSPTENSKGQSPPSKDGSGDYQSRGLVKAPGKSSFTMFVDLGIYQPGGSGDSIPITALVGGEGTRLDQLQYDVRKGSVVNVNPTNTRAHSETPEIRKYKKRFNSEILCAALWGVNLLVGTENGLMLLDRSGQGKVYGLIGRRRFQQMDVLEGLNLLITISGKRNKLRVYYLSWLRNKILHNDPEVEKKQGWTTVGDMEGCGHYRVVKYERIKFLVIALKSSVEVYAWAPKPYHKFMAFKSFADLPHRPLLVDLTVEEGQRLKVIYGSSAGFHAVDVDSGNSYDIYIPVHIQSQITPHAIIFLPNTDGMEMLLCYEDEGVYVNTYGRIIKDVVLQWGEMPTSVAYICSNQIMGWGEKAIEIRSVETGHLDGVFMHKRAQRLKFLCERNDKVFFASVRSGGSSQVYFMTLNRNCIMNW
Sequence of TRAF2 and NCK-interacting protein kinase (Homo sapiens) (Q9UKE5 whole entry, looked up): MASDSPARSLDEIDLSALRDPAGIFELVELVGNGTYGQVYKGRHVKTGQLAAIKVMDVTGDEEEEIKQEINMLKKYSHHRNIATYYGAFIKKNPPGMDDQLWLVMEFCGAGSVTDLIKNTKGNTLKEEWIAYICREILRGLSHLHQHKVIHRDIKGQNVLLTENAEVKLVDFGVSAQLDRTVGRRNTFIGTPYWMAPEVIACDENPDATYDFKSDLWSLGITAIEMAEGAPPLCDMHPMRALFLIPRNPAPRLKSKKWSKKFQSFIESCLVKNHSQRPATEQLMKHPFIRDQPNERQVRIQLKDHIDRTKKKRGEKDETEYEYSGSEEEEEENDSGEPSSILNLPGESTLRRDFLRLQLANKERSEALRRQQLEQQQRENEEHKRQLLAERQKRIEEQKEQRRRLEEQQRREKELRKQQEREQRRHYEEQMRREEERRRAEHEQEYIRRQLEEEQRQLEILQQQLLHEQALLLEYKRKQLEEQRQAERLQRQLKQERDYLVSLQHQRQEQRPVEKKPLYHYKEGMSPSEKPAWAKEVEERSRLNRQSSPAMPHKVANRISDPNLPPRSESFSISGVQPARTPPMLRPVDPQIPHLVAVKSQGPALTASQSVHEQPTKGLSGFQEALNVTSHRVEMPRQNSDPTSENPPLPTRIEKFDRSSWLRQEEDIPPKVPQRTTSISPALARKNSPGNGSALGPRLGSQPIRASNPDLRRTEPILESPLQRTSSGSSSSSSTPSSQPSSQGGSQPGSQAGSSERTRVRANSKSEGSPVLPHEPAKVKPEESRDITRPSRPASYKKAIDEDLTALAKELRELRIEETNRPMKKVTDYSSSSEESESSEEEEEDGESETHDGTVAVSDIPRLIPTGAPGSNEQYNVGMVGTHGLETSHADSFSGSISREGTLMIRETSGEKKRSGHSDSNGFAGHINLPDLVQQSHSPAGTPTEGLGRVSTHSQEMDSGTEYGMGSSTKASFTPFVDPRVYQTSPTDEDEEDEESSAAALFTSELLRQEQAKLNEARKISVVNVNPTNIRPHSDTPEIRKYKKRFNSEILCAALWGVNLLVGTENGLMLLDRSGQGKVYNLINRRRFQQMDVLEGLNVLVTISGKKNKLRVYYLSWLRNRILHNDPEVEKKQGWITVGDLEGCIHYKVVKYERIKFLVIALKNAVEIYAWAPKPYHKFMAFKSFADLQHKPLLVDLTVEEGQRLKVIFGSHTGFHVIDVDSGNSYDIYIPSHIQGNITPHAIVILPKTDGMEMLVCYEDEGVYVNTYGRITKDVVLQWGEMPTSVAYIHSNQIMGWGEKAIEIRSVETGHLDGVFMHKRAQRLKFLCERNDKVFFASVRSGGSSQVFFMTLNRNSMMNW

SMILES | inhibition [1] [%] | microsomal CLint at 1 µM [2] [µL/min/mg] | inhibition [3] [%] | inhibition (Mus musculus) | inhibition [4] [%] | inhibition [5] [%] | IC50 [6] [nM] | hepatocyte CLint at 1 µM [7] [µL/min/1e6 cells] | inhibition in vivo at 100 mg/kg [8] [%] | inhibition in vivo at 100 mg/kg [9] [%] | Time [10] [h] | logD at 2 h [11] | hepatocyte CLint at 1 µM [12] [µL/min/1e6 cells] | IC50 [13] [nM] | inhibition [14] [%] | IC50 [15] [nM] | Activity [16] [%] | IC50 [17] [nM] | efflux ratio at 1.5 h, 1 µM (MDR1, BCRP)
C=CC(=O)N1CC[C@H](n2cc(-c3ccncc3)c(-c3cccc(/C=C/c4ncc(C5CC5)o4)c3)n2)C1 | 55 | 214 | 99 | Active | 99 | 51 | 55 | 43 | 13 | 62 | 12 | 4.8 | 35 | 67 | 57 | 10 | < 10 | 9 | 
C=CC(=O)Nc1cc(Nc2nccc(-c3cn(C)c4ccccc34)n2)c(OC)cc1N(C)CCN(C)C [OSIMERTINIB] |  |  |  |  |  |  |  |  |  |  |  |  |  |  |  |  |  |  | 3.2
